Data taken from patent publication US20080188528A1, “Modulators of C3a receptor and methods of use thereof” (priority 2006, published 2008).
Structures can show the parent of a compound that is named as a salt.

Biological target: T1, human C3a receptor (C3aR) (Homo sapiens, UniProt Q16581)
T1 construct: expressed in transfected cells
T1 sequence (Q16581 1-482): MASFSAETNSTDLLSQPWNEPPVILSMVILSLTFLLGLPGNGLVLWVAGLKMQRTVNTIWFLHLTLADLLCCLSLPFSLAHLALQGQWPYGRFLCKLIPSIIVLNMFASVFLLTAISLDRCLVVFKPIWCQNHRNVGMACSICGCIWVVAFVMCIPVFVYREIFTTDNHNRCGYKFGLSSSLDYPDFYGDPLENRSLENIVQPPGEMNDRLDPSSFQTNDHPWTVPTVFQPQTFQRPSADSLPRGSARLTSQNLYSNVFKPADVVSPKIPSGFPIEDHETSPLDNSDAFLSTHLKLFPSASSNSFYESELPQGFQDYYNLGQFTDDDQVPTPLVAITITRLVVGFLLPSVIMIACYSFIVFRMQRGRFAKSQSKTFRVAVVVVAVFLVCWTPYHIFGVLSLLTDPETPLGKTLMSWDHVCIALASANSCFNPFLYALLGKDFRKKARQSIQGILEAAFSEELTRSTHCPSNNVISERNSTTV
Test: Inhibition of human [125I]-C3a binding to human C3a receptor (SPA, membranes of HEK293 cells expressing recombinant C3aR)
Settings: 0.1 nM [125I]-C3a, 3 hours at room temperature
Procedure, shortened: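 HEK293 C3aR membranes were pre-coupled to WGA SPA beads and incubated 3 h at room temperature with 0.1 nM [125I]-C3a in HEPES pH 7.4 buffer containing 0.25% BSA and 0.2% CHAPS, DMSO ≤1%. Nonspecific binding was defined with 1 μM unlabeled C3a. IC50 came from nonlinear least-squares fitting.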

Row | Compound | IC50 (Table 1) | IC50 (Table 6) | further results
1 | COc1cc2ccccc2cc1Cn1cccc(C(=O)N[C@@H](CCCNC(=N)N)C(=O)O)c1=O [Compound 18, (2S)-5-carbamimidamido-2-[({1-[(3-methoxy-2-naphthyl)methyl]-2-oxo-1,2-dihydropyridin-3-yl}carbonyl)amino]pentanoic acid•TFA] | 50 to 500 nM |  | 
2 | N=C(N)NCCC[C@H](NC(=O)c1cccn(Cc2ccccc2-c2ccccc2)c1=O)C(=O)O [Compound 20, (2S)-2-({[1-(biphenyl-2-ylmethyl)-2-oxo-1,2-dihydropyridin-3-yl]carbonyl}amino)-5-carbamimidamidopentanoic acid•TFA] | < 50 nM |  | 
3 | Cc1cc(Cc2ccccc2)c(=O)n(CC(=O)N[C@@H](CCCNC(=N)N)C(=O)O)c1 [Compound 84, (2S)-2-{[(3-benzyl-5-methyl-2-oxopyridin-1(2H)-yl)acetyl]amino}-5-carbamimidamidopentanoic acid•TFA] |  |  | IC50 (Table 5): 500 to 20000 nM
4 | CC(C)c1cccc(-c2ccccc2Cn2cccc(C(=O)N[C@@H](CCCNC(=N)N)C(=O)O)c2=O)c1 [Compound 29, (2S)-5-carbamimidamido-2-[({1-[(3′-isopropylbiphenyl-2-yl)methyl]-2-oxo-1,2-dihydropyridin-3-yl}carbonyl)amino]pentanoic acid•TFA] | < 50 nM |  | 
5 | N=C(N)NCCC[C@H](NC(=O)c1cccn(Cc2ccccc2)c1=O)C(=O)O [Compound 1, (2S)-2-{[(1-benzyl-2-oxo-1,2-dihydropyridin-3-yl)carbonyl]amino}-5-carbamimidamidopentanoic acid•TFA] | 50 to 500 nM |  | 
6 | Cc1ccc(S(=O)(=O)NCCC[C@H](NC(=O)c2cccn(Cc3ccccc3)c2=O)C(=O)O)cc1 [Compound 67, (2S)-2-{[(1-benzyl-2-oxo-1,2-dihydropyridin-3-yl)carbonyl]amino}-5-{[(4-methylphenyl)sulfonyl]amino}pentanoic acid] |  |  | IC50 (Table 4): 500 to 20000 nM
7 | COC(=O)[C@H](CCCNC(=N)N[N+](=O)[O-])NC(=O)c1cccn(C(c2ccccc2)c2ccccc2)c1=O [Compound 75, methyl (2S)-2-({[1-(diphenylmethyl)-2-oxo-1,2-dihydropyridin-3-yl]carbonyl}amino)-5-(nitrocarbamimidamido)pentanoate] |  |  | IC50 (Table 4): 500 to 20000 nM
8 | Cn1cccc(C(=O)N[C@@H](CCCNC(=N)N)C(=O)O)c1=O [Compound 9, (2S)-5-carbamimidamido-2-{[(1-methyl-2-oxo-1,2-dihydropyridin-3-yl)carbonyl]amino}pentanoic acid•TFA] | 500 to 20000 nM |  | 
9 | N=C(N)NCCC[C@H](NC(=O)c1cccn(Cc2ccccc2-c2ccc3ccccc3c2)c1=O)C(=O)O [Compound 27, (2S)-5-carbamimidamido-2-[({1-[2-(2-naphthyl)benzyl]-2-oxo-1,2-dihydropyridin-3-yl}carbonyl)amino]pentanoic acid•TFA] | < 50 nM |  | 
10 | Cc1ccc(C(=O)N[C@@H](CCCNC(=N)N)C(=O)O)c(=O)n1Cc1ccccc1 [Compound 35, (2S)-2-{[(1-benzyl-6-methyl-2-oxo-1,2-dihydropyridin-3-yl)carbonyl]amino}-5-carbamimidamidopentanoic acid•TFA] | 50 to 500 nM |  | 
11 | O=C(N[C@@H](CCCNC1=NCCN1)C(=O)O)c1cccn(C(c2ccccc2)c2ccccc2)c1=O [Compound 71, (2S)-5-(4,5-dihydro-1H-imidazol-2-ylamino)-2-({[1-(diphenylmethyl)-2-oxo-1,2-dihydropyridin-3-yl]carbonyl}amino)pentanoic acid•TFA] |  |  | IC50 (Table 4): < 50 nM
12 | N=C(N)NCCC[C@H](NC(=O)c1cccn(Cc2ccccc2-c2cccc3ccccc23)c1=O)C(=O)O [Compound 26, (2S)-5-carbamimidamido-2-[({1-[2-(1-naphthyl)benzyl]-2-oxo-1,2-dihydropyridin-3-yl}carbonyl)amino]pentanoic acid•TFA] | < 50 nM |  | 
13 | N=C(NCCC[C@H](NC(=O)c1cccn(Cc2ccccc2)c1=O)C(=O)O)N[N+](=O)[O-] [Compound 73, (2S)-2-{[(1-benzyl-2-oxo-1,2-dihydropyridin-3-yl)carbonyl]amino}-5-(nitrocarbamimidamido)pentanoic acid] |  |  | IC50 (Table 4): 500 to 20000 nM
14 | N=C(N)Nc1cccc([C@H](NC(=O)c2cccn(Cc3ccccc3)c2=O)C(=O)O)c1 [Compound 72, (2S)-{[(1-benzyl-2-oxo-1,2-dihydropyridin-3-yl)carbonyl]amino}(3-carbamimidamidophenyl)acetic acid•TFA] |  |  | IC50 (Table 4): 50 to 500 nM
15 | N=C(N)NCCC[C@H](NC(=O)c1cccn(C(c2cccc(F)c2)c2cccc(F)c2)c1=O)C(=O)O [Compound 45, (2S)-2-[({1-[bis(3-fluorophenyl)methyl]-2-oxo-1,2-dihydropyridin-3-yl}carbonyl)amino]-5-carbamimidamidopentanoic acid•TFA] |  |  | IC50 (Table 2): < 50 nM
16 | CC(C)c1ccc(Cn2cccc(C(=O)N[C@@H](CCCNC(=N)N)C(=O)O)c2=O)cc1 [Compound 8] | < 50 nM |  | 
17 | N=C(N)NCCC[C@H](NC(=O)c1ccn(C(c2ccccc2)c2ccccc2)c(=O)c1)C(=O)O [Compound 56, (2S)-5-carbamimidamido-2-({[1-(diphenylmethyl)-2-oxo-1,2-dihydropyridin-4-yl]carbonyl}amino)pentanoic acid•TFA] |  |  | IC50 (Table 3): 50 to 500 nM
18 | N=C(N)NCCC[C@H](NC(=O)c1ccc(-c2ccccc2)n(Cc2ccccc2)c1=O)C(=O)O [Compound 36, (2S)-2-{[(1-benzyl-2-oxo-6-phenyl-1,2-dihydropyridin-3-yl)carbonyl]amino}-5-carbamimidamidopentanoic acid•TFA] | 500 to 20000 nM |  | 
19 | N=C(N)NCCC[C@H](NC(=O)c1cccn(Cc2ccccc2Cc2ccccc2)c1=O)C(=O)O [Compound 23, (2S)-2-({[1-(2-benzylbenzyl)-2-oxo-1,2-dihydropyridin-3-yl]carbonyl}amino)-5-carbamimidamidopentanoic acid•TFA] | < 50 nM |  | 
20 | N=C(N)NCC[C@H](NC(=O)c1cccn(C(c2ccccc2)c2ccccc2)c1=O)C(=O)O [Compound 65, (2S)-4-carbamimidamido-2-({[1-(diphenylmethyl)-2-oxo-1,2-dihydropyridin-3-yl]carbonyl}amino)butanoic acid•TFA] |  |  | IC50 (Table 4): 50 to 500 nM

More lines, main results first:

Row | IC50 (Table 1) | IC50 (Table 6) | Compound | further results
21 |  | 50 to 500 nM | CC(=N)NCCC[C@H](NC(=O)c1ccc(C(c2ccc(Cl)cc2)c2ccc(Cl)cc2)s1)C(=O)O [Compound 125, (2S)-2-[({5-[bis(4-chlorophenyl)methyl]thiophen-2-yl}carbonyl)amino]-5-(ethanimidoylamino)pentanoic acid•TFA] | 
22 |  | 500 to 20000 nM | CC(=N)NCCC[C@H](NC(=O)c1ccc(C(c2ccccc2)c2ccccc2)cc1)C(=O)O [Compound 108, (2S)-2-({[4-(Diphenylmethyl)phenyl]carbonyl}amino)-5-(ethanimidoylamino)pentanoic acid] | 
23 |  | 50 to 500 nM | C/C(=N\O)NCCC[C@H](NC(=O)c1ccc(C(c2ccccc2)c2ccccc2)s1)C(=O)O [Compound 136, (2S)-2-({[5-(diphenylmethyl)thiophen-2-yl]carbonyl}amino)-5-{[1-(hydroxyamino)ethylidene]amino}pentanoic acid•TFA] | 
24 |  | 500 to 20000 nM | CC(C)C(=N)NCCC[C@H](NC(=O)c1ccc(C(c2ccccc2)c2ccccc2)s1)C(=O)O [Compound 132, (2S)-2-({[5-(diphenylmethyl)thiophen-2-yl]carbonyl}amino)-5-[(2-methylpropanimidoyl)amino]pentanoic acid•TFA] | 
25 |  | 50 to 500 nM | CC(=N)NCCC[C@H](NC(=O)c1cccn(Cc2cccc(C(F)(F)F)c2)c1=O)C(=O)O [Compound 106, (2S)-5-(ethanimidoylamino)-2-[({2-oxo-1-[3-(trifluoromethyl)benzyl]-1,2-dihydropyridin-3-yl}carbonyl)amino]pentanoic acid•TFA] | 
26 |  | 50 to 500 nM | CC(=N)NCCC[C@H](NC(=O)c1ccc(C(c2ccccc2)c2ccccc2)o1)C(=O)O [Compound 102, (2S)-2-({[5-(Diphenylmethyl)furan-2-yl]carbonyl}amino)-5-(ethanimidoylamino)pentanoic acid] | 
27 |  | 50 to 500 nM | CC(=N)NCCC[C@H](NC(=O)c1cccn(Cc2ccc(Br)cc2)c1=O)C(=O)O [Compound 110, (2S)-2-({[1-(4-bromobenzyl)-2-oxo-1,2-dihydropyridin-3-yl]carbonyl}amino)-5-(ethanimidoylamino)pentanoic acid•TFA] | 
28 |  | < 50 nM | N=C(N)NCCCC[C@H](NC(=O)c1cccn(C(c2ccccc2)c2ccccc2)c1=O)C(=O)O [Compound 87, (2S)-6-Carbamimidamido-2-({[1-(diphenylmethyl)-2-oxo-1,2-dihydropyridin-3-yl]carbonyl}amino)hexanoic acid] | 
29 |  | < 50 nM | CC(=N)NCCC[C@H](NC(=O)c1cccn(Cc2cc(Cl)cc(Cl)c2)c1=O)C(=O)O [Compound 116, (2S)-2-({[1-(3,5-dichlorobenzyl)-2-oxo-1,2-dihydropyridin-3-yl]carbonyl}amino)-5-(ethanimidoylamino)pentanoic acid•TFA] | 
30 |  | 50 to 500 nM | CC(=N)NCCC[C@H](NC(=O)c1ccc(C(c2cccc(F)c2)c2cccc(F)c2)s1)C(=O)O [Compound 129, (2S)-2-[({5-[bis(3-fluorophenyl)methyl]thiophen-2-yl}carbonyl)amino]-5-(ethanimidoylamino)pentanoic acid•TFA] | 
